Laboratory results: patent US12453759B2, “Di-thioester cationic lipids” (TRANSLATE BIO, INC., priority 2019, dated 2025)

Tested on: hEPO protein expression
Experiment: In vivo expression of hEPO after IM injection of hEPO mRNA lipid nanoparticles (serum ELISA)
Conditions: LNP with hEPO mRNA, cationic lipid, DMG-PEG2000, cholesterol, DOPE, single IM injection into gastrocnemius, 0.1 ug, male BALB/c mice, FIG. 1
Description: Lipid nanoparticle formulations comprising human erythropoietin (hEPO) mRNA, a cationic Lipid, DMG-PEG2000, cholesterol and DOPE were administered intramuscularly to study mRNA delivery and resultant hEPO expression. Male BALB/c mice at 6-8 weeks old are given a single injection of the LNP formulations into the gastrocnemius muscle at a dosage level of 0.1 ug. Blood samples were collected at 6 and 24 hours post-dose. hEPO protein expression levels were measured in the sera samples by ELISA and presented in FIG. 1.

Row | SMILES | in vivo protein production (hEPO protein expression levels in sera) (6 hours after administration) | in vivo protein production (hEPO protein expression levels in sera) (24 hours after administration)
1 | CCCCCCCCC(O)CN(CCSC(=O)[C@H]1CC[C@H](C(=O)SCCN(CC(O)CCCCCCCC)CC(O)CCCCCCCC)CC1)CC(O)CCCCCCCC (stereo partly drawn) [Compound 79] | high levels of in vivo protein production | –
2 | CCCCCCCCCCC(O)CN(CCSC(=O)c1ccc(C(=O)SCCN(CC(O)CCCCCCCCCC)CC(O)CCCCCCCCCC)cc1)CC(O)CCCCCCCCCC (stereo not drawn) [Compound 98] | high levels of in vivo protein production | high levels of in vivo protein production
